From patent US8778966B2, “Quinolinone derivatives as PARP and tank inhibitors” (Janssen Pharmaceutica, NV, priority 2007, dated 2014) come the findings set out here.

The target of this assay is T1, TANK-2 enzyme (Homo sapiens, UniProt Q9H2K2).
T1 construct: made in house
T1 sequence (Q9H2K2 1-1166): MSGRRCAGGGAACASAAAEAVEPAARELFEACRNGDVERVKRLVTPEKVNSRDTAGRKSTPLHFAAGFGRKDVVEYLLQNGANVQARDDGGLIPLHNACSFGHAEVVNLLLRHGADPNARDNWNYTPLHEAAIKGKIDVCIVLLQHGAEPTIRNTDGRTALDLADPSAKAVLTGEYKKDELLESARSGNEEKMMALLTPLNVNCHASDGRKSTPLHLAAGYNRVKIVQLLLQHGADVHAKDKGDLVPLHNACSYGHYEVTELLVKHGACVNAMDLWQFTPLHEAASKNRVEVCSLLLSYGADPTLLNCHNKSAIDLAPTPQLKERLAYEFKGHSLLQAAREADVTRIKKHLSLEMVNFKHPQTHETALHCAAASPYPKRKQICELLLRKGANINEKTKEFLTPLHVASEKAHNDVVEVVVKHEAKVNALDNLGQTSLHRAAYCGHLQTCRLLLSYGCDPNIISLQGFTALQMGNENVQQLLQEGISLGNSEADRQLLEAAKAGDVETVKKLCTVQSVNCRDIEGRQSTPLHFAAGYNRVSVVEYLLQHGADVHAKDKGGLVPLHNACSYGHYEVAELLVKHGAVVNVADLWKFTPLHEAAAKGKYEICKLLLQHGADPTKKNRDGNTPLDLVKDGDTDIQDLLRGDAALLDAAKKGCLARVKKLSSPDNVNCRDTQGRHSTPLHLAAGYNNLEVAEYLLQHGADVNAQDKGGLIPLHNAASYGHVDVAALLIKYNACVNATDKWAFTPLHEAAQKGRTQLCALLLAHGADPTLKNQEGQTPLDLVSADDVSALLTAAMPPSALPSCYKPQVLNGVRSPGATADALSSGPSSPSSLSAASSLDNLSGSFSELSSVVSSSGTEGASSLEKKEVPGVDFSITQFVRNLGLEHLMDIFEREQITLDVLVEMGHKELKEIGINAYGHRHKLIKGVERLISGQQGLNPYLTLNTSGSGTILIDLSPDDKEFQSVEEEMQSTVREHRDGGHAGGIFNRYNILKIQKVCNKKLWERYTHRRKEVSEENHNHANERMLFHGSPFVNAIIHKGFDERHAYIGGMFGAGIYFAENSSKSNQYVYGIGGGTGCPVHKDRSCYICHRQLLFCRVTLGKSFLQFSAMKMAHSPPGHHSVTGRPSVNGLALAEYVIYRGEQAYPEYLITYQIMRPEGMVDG
Kind of assay: In vitro Scintillation Proximity Assay (SPA) for TANK-2 inhibitory activity. The class given is biochemical. Particulars: read-out: in vitro SPA assay TANK-2 pIC50 (converted). The method, boiled down: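 TANK-2 (8 μg/ml final) auto-poly(ADP-ribosyl)ation with [3H]-NAD+/NAD donor was run in Ni flash plates in Tris/HCl pH 7.4 buffer with DTT and MgCl2, 120 min at room temperature, then stopped with excess NAD and scintillation-counted. Blank-corrected cpm was expressed as % of enzyme control, and IC50 was linearly interpolated and reported as pIC50.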
(In general: SPA uses beads or plates that emit light when radiolabelled molecules are held near them.)

Regarding `CCc1cc2ccc(C(C)(C#N)Cc3ccncc3)cc2[nH]c1=O` (stereo not drawn) [Compound 98], the IC50 is 31.6 nM.

Regarding `CCc1cc2ccc(C(C)(C#N)Cc3cc(Cl)ccc3Cl)cc2[nH]c1=O` (stereo not drawn) [Compound 99], the IC50 was 79.4 nM.

In the case of `CCc1cc2ccc(C(C)(C#N)Cc3ccccc3C#N)cc2[nH]c1=O` (stereo not drawn) [Compound 101], the IC50 was 39.8 nM.

With `CCc1cc2ccc(C(C)(C#N)Cc3ccccc3OC(F)(F)F)cc2[nH]c1=O` (stereo not drawn) [Compound 102], the IC50 was 200 nM.

In the case of `CCc1cc2ccc(C(C)(C#N)Cc3ccccc3C(F)(F)F)cc2[nH]c1=O` (stereo not drawn) [Compound 103], the IC50 was 79.4 nM.

Turning to `Cc1cc2ccc(C(C)(C#N)Cc3cc4ccccc4[nH]3)cc2[nH]c1=O` (stereo not drawn) [Compound 234], the IC50 is 794 nM.

With `CCc1cc2ccc(C(C)(C#N)Cc3ccc(F)c(C#N)c3)cc2[nH]c1=O` (stereo not drawn) [Compound 267], the IC50 is 251 nM.

Regarding `CCc1cc2ccc(C(C)(C#N)CCOc3ccccc3C#N)cc2[nH]c1=O` (stereo not drawn) [Compound 276], the IC50 is 79.4 nM.

Take `CCc1cc2ccc(C(C)(C#N)CCOc3cc(Cl)c(Cl)cc3Cl)cc2[nH]c1=O` (stereo not drawn) [Compound 277]: the IC50 was 2000 nM.

Turning to `CCc1cc2ccc(C(C)(C#N)CCOc3ccccc3F)cc2[nH]c1=O` (stereo not drawn) [Compound 278], the IC50 is 316 nM.

As to `CCc1cc2ccc(C(C)(C#N)CCOc3ccc4c(c3)OCO4)cc2[nH]c1=O` (stereo not drawn) [Compound 279], the IC50 is 398 nM.

With `CCc1cc2ccc(C(C)(C#N)Cc3cc(OC)cc(OC)c3)cc2[nH]c1=O` (stereo not drawn) [Compound 332], the IC50 is 501 nM.
